# Data: patent US20130184337A1, “SODIUM ASCORBATE STIMULATION OF ELASTOGENESIS” (THE HOSPITAL FOR SICK CHILDREN, priority 2012, published 2013)
# Legend:
# Type in all cases: cell-based, human
# normal skin explants = experiment: Organ culture of skin explants (Movat pentachrome morphometry, insoluble elastin); details: 200 μM, 10-day-long daily treatment
# Procedure: Organ culture of skin explants—Fragments of normal skin, stretch-marked skin and dermal scars collected during […] 5% FBS, in the presence or absence of 200 μM SA alone or in combination with 200 μM DMOG as described in figure legends. The parallel quadruplicate explants from each experimental group were additionally maintained in the presence 2 μCi of [3H]-valine/ml and then subjected to the assay of insoluble elastin. The parallel explants from each experimental groups were also evaluated after pentachrome Movat's staining which allows for clear marking of elastic fibers. In each experimental group, 50 sections derived from quadruplicate explants were analyzed.
# tropoelastin mRNA = experiment: RT-PCR of tropoelastin mRNA normalized to GAPDH mRNA; details: 50-200 μM, 18 hours, medium with 5% FBS
# Procedure: One-Step RT-PCR Analysis—The confluent cultures of skin fibroblasts were treated with or without the reagents of interest for different periods of time as indicated in the figure legend. Total RNA was extracted using the RNeasy Mini Kit, and the one-step RT-PCR reactions were set up with the RT-PCR Kit, according to the manufacturer's (Qiagen, Mississauga, ON) instructions. The amounts of tropoelastin mRNA were always normalized to the amount of GAPDH mRNA.
# explants of dermal scars = experiment: Organ culture of skin explants (histochemistry, insoluble elastin); details: 200 μM SA
# Procedure: Organ culture of skin explants—Fragments of normal skin, stretch-marked skin and dermal scars collected during plastic surgery procedures were cut into multiple 4 mm2 pieces and maintained for 7 days in DMEM medium containing 5% FBS, […] The parallel quadruplicate explants from each experimental group were additionally maintained in the presence 2 μCi of [3H]-valine/ml and then subjected to the assay of insoluble elastin. The parallel explants from each experimental groups were also evaluated after pentachrome Movat's staining which allows for clear marking of elastic fibers. In each experimental group, 50 sections derived from quadruplicate explants were analyzed.
# [1] = tested on: fibroblasts derived from dermal stretch marks; experiment: Collagen and elastic fiber deposition in stretch-mark fibroblast cultures; details: 200 μM, 24 hour-old cultures
# Procedure: Cell Cultures-Fibroblasts initially grew out from the explants of these full thickness skin biopsies and were maintained. The primary cultures of fat-derived fibroblasts obtained from Thermogenesis (Rancho Cordova, Calif.) were also tested. In all described experiments, 2-4 passages of both kinds of fibroblasts were used. In experiments aimed at assessing ECM production, cells were initially plated at a concentration of 100,000 cells/dish. […] Immuno-staining-All cultures maintained in the presence and absence of indicated reagents were either fixed in cold 100% methanol at -20° C. (for detection of elastin) or in 4% paraformaldehyde at room temperature (for detection of collagen I). The multiple parallel cultures were then incubated with 10 μg/ml of polyclonal antibody to tropoelastin (Elastin Products, Owensville, Mich.), or polyclonal antibody to collagen type I (Chemicon, Temecula, Calif.). Cultures were then incubated with the respective fluorescein-conjugated goat anti-rabbit, goat anti-mouse, or rabbit anti-goat secondary antibodies. Nuclei were counterstained with propidium iodide (Sigma, Sigma, St. Louis, Mo.). All of the cultures were then examined with a Nikon Eclipse […] microscope attached to a cooled CCD camera (QImaging, Retiga EX) and analyzed by the computer-generated morphometric analysis system (Image-Pro Plus software, Media Cybernetics, Silver Springs, Md.) as previously described. Quantitative Assays of Insoluble Elastin-Fibroblasts were grown to confluency in 35-mm culture dishes (100,000 cells/dish). Next, 2 μCi of [3H]-valine/ml (Amersham Biosciences Ltd. Oakville, Canada), were added to each dish along with or without the indicated treatments. At the end of each experiment, the levels of metabolically labeled NaOH-insoluble elastin present in individual cultures were assayed and normalized per their DNA content.
# [2] = tested on: reactive oxygen species (ROS); experiment: Intracellular ROS with CM-H2DCFDA probe (fluorescence microscope, flow cytophotometry); details: 100 μM, 2 hours
# Procedure: Quantification of Intracellular free radicals-reactive oxygen species (ROS)—To assess the levels of ROS, quadruplicate cultures of normal skin fibroblasts were exposed to 10 μM of ROS-sensitive CM-H2DCFDA fluorescent probe (Molecular Probes, Eugene, Oreg.) for 30 minutes. This probe passively diffuses into the cell interior and only upon oxidation is a fluorescent product released that can be visualized under a fluorescent microscope or captured by flow cytophotometry when excited at 480 nm. Fibroblasts were then maintained for 30 minutes in the presence or absence of 400 μM probenecid, then incubated either for 2 or 24 hours with and without 100 μM AA or 100 μM SA. At the end of these periods the images were captured using a fluorescent microscope under identical parameters of contrast and brightness. The ROS production was also assessed by flow cytophotometry (λ excitation 480 nm; λ emission 520 nm), using FACSCalibur, Beckton Dickinson Instrument.
smiles,measurement,setting,value
"O=C1O[C@H]([C@@H](O)CO)C([O-])=C1O.[Na+] [SA, (+)-sodium L-ascorbate]",deposition of new elastic fibers,normal skin explants,enhanced deposition of new elastic fibers
same,levels of tropoelastin-encoding mRNA,tropoelastin mRNA,significant and dose-dependent up-regulation
same,production of new elastic fibers,explants of dermal scars,initiated production of new elastic fibers
same,production of collagen fibers,[1],significantly up-regulated
same,production of elastic fibers / elastogenesis,[1],significantly up-regulated
same,levels of intracellular ROS,[2],significantly lower levels of ROS
